The nature of the data set: in vitro. The settings on record: human, hek293t cells.
In the case of `C=CC(=O)NCc1ccc(C(=O)N2CCCOC(C)(C)C2)cc1` [3-N06, N-{[4-(2,2-dimethyl-1,4-oxazepane-4-carbonyl)phenyl]methyl}prop-2-enamide], the viability (usually a read-out of living cells in per cent, often relative to untreated cells) at 48 h, 25 µM stood at 70.7%.
As to `C=CC(=O)NCc1nnc2n1CCCCC2` [3-N07, N-({5H,6H,7H,8H,9H-[1,2,4]triazolo[4,3-a]azepin-3-yl}methyl)prop-2-enamide], the viability at 48 h, 25 µM came to 43.2%.
The result for `C=CC(=O)NCc1n[nH]c(=O)n1C1CC1` [3-N08, N-[(4-cyclopropyl-5-oxo-4,5-dihydro-1H-1,2,4-triazol-3-yl)methyl]prop-2-enamide] reads 80%; that for `C=CC(=O)N1CCc2c(ncn2-c2ccccc2)C1` [3-N09, 1-{1-phenyl-1H,4H,5H,6H,7H-imidazo[4,5-c]pyridin-5-yl}prop-2-en-1-one], 70.1%.
For `C=CC(=O)N1CCC(C(=O)NCc2ccc(S(N)(=O)=O)cc2)CC1` [3-N10, 1-(prop-2-enoyl)-N-[(4-sulfamoylphenyl)methyl]piperidine-4-carboxamide], the viability at 48 h, 25 µM came out at 85.1%.
The result for `C=CC(=O)NC1CCn2cccc2C1` (stereo not shown) [3-N11, N-(5,6,7,8-tetrahydroindolizin-7-yl)prop-2-enamide] reads 71.4%; that for `C=CC(=O)N1CCC(C(=O)NCc2cccc(Cl)c2F)CC1` [3-N12, N-[(3-chloro-2-fluorophenyl)methyl]-1-(prop-2-enoyl)piperidine-4-carboxamide], 87.6%; that for `C=CC(=O)NC(C)c1nnc(-c2ccccc2F)s1` (stereo not shown) [3-N13, N-{1-[5-(2-fluorophenyl)-1,3,4-thiadiazol-2-yl]ethyl}prop-2-enamide], 76%.
Regarding `C=CC(=O)NC(c1ccc(F)cc1)c1ccccn1` (stereo not shown) [3-N14, N-[(4-fluorophenyl)(pyridin-2-yl)methyl]prop-2-enamide], the viability at 48 h, 25 µM was found to be 97%.
As for `C=CC(=O)NCc1cc(Cl)cc(S(C)(=O)=O)c1` [3-N15, N-[(3-chloro-5-methanesulfonylphenyl)methyl]prop-2-enamide], the figure is 76.8%; as for `C=CC(=O)N[C@H](C)c1ccccc1OC(C)C` [3-N16, N-[(1R)-1-[2-(propan-2-yloxy)phenyl]ethyl]prop-2-enamide], 82.5%.
As for `C=CC(=O)NCC1CS(=O)(=O)c2ccccc2O1` (stereo not shown) [3-N17, N-[(4,4-dioxo-2,3-dihydro-1,4lambda6-benzoxathiin-2-yl)methyl]prop-2-enamide], the figure is 79.4%; as for `C=CC(=O)N1Cc2c(C(=O)O)cnn2CC1C` (stereo not shown) [3-N18, 6-methyl-5-(prop-2-enoyl)-4H,5H,6H,7H-pyrazolo[1,5-a]pyrazine-3-carboxylic acid], 87%; as for `C=CC(=O)NCCc1nc(C)no1` [3-N19, N-[2-(3-methyl-1,2,4-oxadiazol-5-yl)ethyl]prop-2-enamide], 74.2%.
The result for `C=CC(=O)NCc1nc2cc(F)ccc2o1` [3-N20, N-[(5-fluoro-1,3-benzoxazol-2-yl)methyl]prop-2-enamide] reads 84.7%.
As for `C=CC(=O)NCc1cn(C2CCCC2)nc1C` [3-N21, N-[(1-cyclopentyl-3-methyl-1H-pyrazol-4-yl)methyl]prop-2-enamide], the viability at 48 h, 25 µM was 55.5%.
The result for `C=CC(=O)NCc1ccc(C(=O)NC2CC(=O)N(C)C2)cc1` (stereo not shown) [3-N22, N-(1-methyl-5-oxopyrrolidin-3-yl)-4-[(prop-2-enamido)methyl]benzamide] reads 81.2%; that for `C=CC(=O)N1CCC(CCO)c2ccccc21` (stereo not shown) [3-O03, 1-[4-(2-hydroxyethyl)-1,2,3,4-tetrahydroquinolin-1-yl]prop-2-en-1-one], 58.4%; that for `C=CC(=O)N1CCC(C(=O)NC[C@H]2C[C@@H](O)C2)(c2ccccc2)CC1` [3-O04, 4-phenyl-1-(prop-2-enoyl)-N-{[(1s,3s)-3-hydroxycyclobutyl]methyl}piperidine-4-carboxamide], 118%.
As for `C=CC(=O)NCc1ccc(C(=O)N2CCCC2)cc1` [3-O05, N-{[4-(pyrrolidine-1-carbonyl)phenyl]methyl}prop-2-enamide], the figure is 71.6%; as for `C=CC(=O)Nc1cc(C)c(CC)cc1OC` [3-O06, N-(4-ethyl-2-methoxy-5-methylphenyl)prop-2-enamide], 82%.
Regarding `C=CC(=O)N1CCC(Cc2nc3ccc(F)cc3o2)CC1` [3-O07, 1-{4-[(6-fluoro-1,3-benzoxazol-2-yl)methyl]piperidin-1-yl}prop-2-en-1-one], the viability at 48 h, 25 µM turned out to be 47.3%.
With `C=CC(=O)Nc1ccc(C(=O)N2CCC(S(=O)(=O)NC)C2)cc1` (stereo not shown) [3-O08, N-{4-[3-(methylsulfamoyl)pyrrolidine-1-carbonyl]phenyl}prop-2-enamide], the viability at 48 h, 25 µM was 95.4%.
Turning to `C=CC(=O)N1CCCC2(CCCCO2)C1` (stereo not shown) [3-O09, 1-{1-oxa-8-azaspiro[5.5]undecan-8-yl}prop-2-en-1-one], the viability at 48 h, 25 µM amounted to 57%.
Take `C=CC(=O)N(C)CC(=O)N1CCN(C(=O)C2CCCCC2)CC1` [3-O10, N-[2-(4-cyclohexanecarbonylpiperazin-1-yl)-2-oxoethyl]-N-methylprop-2-enamide]: the viability at 48 h, 25 µM was 93.8%.
Consider `C=CC(=O)N1CCOCC1c1noc(C)n1` (stereo not shown) [3-O11, 1-[3-(5-methyl-1,2,4-oxadiazol-3-yl)morpholin-4-yl]prop-2-en-1-one], for which the viability at 48 h, 25 µM is 51.5%.
As to `C=CC(=O)N1CCC(C(=O)Nc2nncn2C)(c2ccccc2)CC1` [3-O12, N-(4-methyl-4H-1,2,4-triazol-3-yl)-4-phenyl-1-(prop-2-enoyl)piperidine-4-carboxamide], the viability at 48 h, 25 µM was determined as 106%.
`C=CC(=O)NCC1(S(=O)(=O)CC)CC1` [3-O13, N-{[1-(ethanesulfonyl)cyclopropyl]methyl}prop-2-enamide]: the viability at 48 h, 25 µM came out at 48.1%.
In the case of `C=CC(=O)N1CCC(C(=O)NCc2cnn(-c3ccccc3)c2)CC1` [3-O14, N-[(1-phenyl-1H-pyrazol-4-yl)methyl]-1-(prop-2-enoyl)piperidine-4-carboxamide], the viability at 48 h, 25 µM worked out at 91.1%.
As for `C=CC(=O)Nc1ccc2c(c1)S(=O)(=O)CC2` [3-O15, N-(1,1-dioxo-2,3-dihydro-1lambda6-benzothiophen-6-yl)prop-2-enamide], the figure is 63.9%; as for `C=CC(=O)N1CCC(Cc2nccs2)C1` (stereo not shown) [3-O16, 1-{3-[(1,3-thiazol-2-yl)methyl]pyrrolidin-1-yl}prop-2-en-1-one], 98.7%.
As for `C=CC(=O)NCCC(=O)N1CC[S+]([O-])C(C)(C)CC1` (stereo not shown) [3-O17, N-[3-(7,7-dimethyl-1-oxo-1lambda4,4-thiazepan-4-yl)-3-oxopropyl]prop-2-enamide], the figure is 58.5%; as for `C=CC(=O)NC1CCCN(C2CCCCC2)C1=O` (stereo not shown) [3-O18, N-(1-cyclohexyl-2-oxopiperidin-3-yl)prop-2-enamide], 92.1%.
The result for `C=CC(=O)N1CCC(C(=O)NCc2ccc(OC)cn2)CC1` [3-O19, N-[(5-methoxypyridin-2-yl)methyl]-1-(prop-2-enoyl)piperidine-4-carboxamide] reads 59%; that for `C=CC(=O)N1CCCCC1c1nc2ccccc2o1` (stereo not shown) [3-O20, 1-[2-(1,3-benzoxazol-2-yl)piperidin-1-yl]prop-2-en-1-one], 82.3%.
On to `C=CC(=O)Nc1cnn(C2CCCC2)c1` [3-O21, N-(1-cyclopentyl-1H-pyrazol-4-yl)prop-2-enamide], for which the viability at 48 h, 25 µM came to 70.5%.
As for `C=CC(=O)NCc1cccc(C(C)(F)F)c1` [3-O22, N-{[3-(1,1-difluoroethyl)phenyl]methyl}prop-2-enamide], the figure is 136%.
As for `C=CC(=O)N1CCC(C(=O)NCc2ncnn2CC)CC1` [3-P03, N-[(1-ethyl-1H-1,2,4-triazol-5-yl)methyl]-1-(prop-2-enoyl)piperidine-4-carboxamide], the figure is 71.2%; as for `C=CC(=O)NC1(c2ccccc2)CCOC1` (stereo not shown) [3-P04, N-(3-phenyloxolan-3-yl)prop-2-enamide], 89.3%.
The result for `C=CC(=O)NCc1ccc(C(=O)N2CCC(C#N)CC2)cc1` [3-P05, N-{[4-(4-cyanopiperidine-1-carbonyl)phenyl]methyl}prop-2-enamide] reads 46.3%.
As to `C=CC(=O)N(C)CC(=O)Nc1ccc(N2CCC(O)CC2)cc1` [3-P06, N-({[4-(4-hydroxypiperidin-1-yl)phenyl]carbamoyl}methyl)-N-methylprop-2-enamide], the viability at 48 h, 25 µM amounted to 65.6%.
Regarding `C=CC(=O)NC(c1nnc2n1CCC2)C(C)C` (stereo not shown) [3-P07, N-(2-methyl-1-{5H,6H,7H-pyrrolo[2,1-c][1,2,4]triazol-3-yl}propyl)prop-2-enamide], the viability at 48 h, 25 µM was 52.1%.
As for `C=CC(=O)NCc1ccc(C(C)(C)C)[nH]c1=O` [3-P08, N-[(6-tert-butyl-2-oxo-1,2-dihydropyridin-3-yl)methyl]prop-2-enamide], the figure is 76.4%; as for `C=CC(=O)N1CCC(Cn2cnnc2)CC1` [3-P09, 1-{4-[(4H-1,2,4-triazol-4-yl)methyl]piperidin-1-yl}prop-2-en-1-one], 43.5%.
As for `C=CC(=O)N1CCC(C(=O)NCC(C)c2ncc(C)s2)CC1` (stereo not shown) [3-P10, N-[2-(5-methyl-1,3-thiazol-2-yl)propyl]-1-(prop-2-enoyl)piperidine-4-carboxamide], the figure is 61.4%; as for `C=CC(=O)N[C@H]1CCN(S(=O)(=O)c2ccccc2)C1` [3-P11, N-[(3S)-1-(benzenesulfonyl)pyrrolidin-3-yl]prop-2-enamide], 54.4%; as for `C=CC(=O)N1CCC(C(=O)N[C@H](C)c2ccc3c(c2)CCCC3)CC1` [3-P12, 1-(prop-2-enoyl)-N-[(1R)-1-(5,6,7,8-tetrahydronaphthalen-2-yl)ethyl]piperidine-4-carboxamide], 58%.
Regarding `C=CC(=O)NC1(Cc2ccccc2)CC1` [3-P13, N-(1-benzylcyclopropyl)prop-2-enamide], the viability at 48 h, 25 µM turned out to be 61.5%.
As for `C=CC(=O)N1Cc2cnn(C)c2C1` [3-P14, 1-{1-methyl-1H,4H,5H,6H-pyrrolo[3,4-c]pyrazol-5-yl}prop-2-en-1-one], the figure is 87.3%.
